Values quoted from earlier work as cited in patent publication US5427767A, “Nanocrystalline magnetic iron oxide particles-method for preparation and use in medical diagnostics and therapy” (Institut fur Diagnostikforschung GmbH an der Freien …, priority 1991, dated 1995).

Columns and labels:
[1] = 0.47 T, water, 40° C
[2] = in vivo

Molecule	T1 relaxivity [1]	T2 relaxivity [1]	allergic potential [2]
O=C([O-])CN(CCN(CC(=O)[O-])CC(=O)O)CCN(CC(=O)[O-])CC(=O)O.[Gd+3] [Gd-DTPA]	~4 1/mmol .phi.s	~4 1/mmol .phi.s	
dextran			adverse allergic potential
